Data set [1] deals with Oprm1^−/− mice. Kind of data set: Three-chamber social preference test. It is filed as in vivo, mouse. As to the method:
(§1) Mice were treated with vehicle (NaCl 0.9%; ip, 10 or 20 ml/kg), NaBr (Sigma-Aldrich, Saint-Quentin Fallavier, France) administered either chronically (once a day, 10, 30, 70, 125, 250 and 500 mg/kg; i.p. or per os, in a volume of 20 ml/kg—except for combination with VU0155041: […]) or acutely (250 mg/kg, 20 ml/kg), KBr (Sigma-Aldrich, Saint-Quentin Fallavier, France; 145 mg/kg; i.p., 20 ml/kg), bumetanide (R&D systems, Minneapolis, USA, 0.5 and 2 mg/kg; i.p., 20 ml/kg) or VU0155041 (Cayman Chemicals, Ann Arbor, USA, once a day, i.p., 1 mg/kg, 10 ml/kg). […] When treatment was given chronically, behavioral testing started 8 days after beginning of daily administration. Treatment was maintained for 8 to 18 consecutive days (see timelines in FIGS. 1 and 4), allowing thorough behavioral phenotyping. On testing days, or when treatment was given acutely, drugs (or vehicle) were administered 30 min before behavioral assays.
Three-chamber social preference test. The test apparatus consisted of a transparent acrylic box (exterior walls blinded with black plastic film); partitions divided the box into three equal chambers (40×20×22.5 cm). Two sliding doors (8×5 cm) allowed transitions between chambers. Cylindrical wire cages (18×9 cm, 0.5 cm diameter-rods spaced 1 cm apart) were used to contain the mouse interactor and object (soft-toy mouse). The test was performed in low-light conditions (15 lx) to minor anxiety. Stimulus wild-type mice were habituated to confinement in wire cages for 2 days before the test (20 min/day). On testing day, the experimental animal was introduced to the middle chamber and allowed to explore the whole apparatus for a 10-min habituation phase (wire cages empty) after the sliding doors were raised. The experimental mouse was then confined back in the middle-chamber while the experimenter introduced an unfamiliar wild type age and sex-matched animal into a wire cage in one of the side-chambers and a soft toy mouse (8×10 cm) in the second wire cage as a control for novelty. Then the experimental mouse was allowed to explore the apparatus for a 10-min interaction phase. The time spent in each chamber, the time spent in nose contact with each wire cage (empty: habituation; containing a mouse or a toy: interaction), as well as the number of these nose contacts were scored a posteriori on video recordings using an ethological keyboard (Labwatcher®, View Point, Lyon, France) by trained experimenters. […] The relative position of stimulus mice (versus toy) was counterbalanced between groups.

The test system of data set [2] is Oprm1^−/− mice. In words: Y-maze exploration. It is filed as in vivo, mouse. The following applies: chronic NaBr 10-500 mg/kg or bumetanide 0.5 and 2 mg/kg. As to the method:
as §1
Y-maze exploration. Spontaneous alternation behavior was used to assess perseverative behavior (65-67). Each Y-maze consisted of three connected Plexiglas arms (15×15×17 cm) covered with distinct wall patterns (15 lx). Floors were covered with lightly sprayed fresh sawdust to limit anxiety. Each mouse was placed at the center of a maze and allowed to freely explore this environment for 5 min. The pattern of entries into each arm was quoted on video-recordings. Spontaneous alternations (SPA), i.e. successive entries into each arm forming overlapping triplet sets, alternate arm returns (AAR) and same arm returns (SAR) were scored, and the percentage of SPA, AAR and SAR was calculated as following: total/(total arm entries−2)*100.

Data set [3] has as its system Oprm1^−/− mice. Kind of data set: Novelty-suppressed feeding. Format: in vivo, mouse. The method, then: as §1
(§2) Novelty-suppressed feeding. Novelty-suppressed feeding (NSF) was measured in 24-hr food-deprived mice, isolated in a standard housing cage for 30 min before individual testing. Three pellets of ordinary lab chow were placed on a white tissue in the center of each arena, lit at 60 lx. Each mouse was placed in a corner of an arena and allowed to explore for a maximum of 15 min. Latency to feed was measured as the time necessary to bite a food pellet. Immediately after an eating event, the mouse was transferred back to home cage (free from cage-mates) and allowed to feed on lab chow for 5 min. Food consumption in the home cage was measured.

For data set [4], the system named is Oprm1^−/− mice. In words: Tail-immersion test. Format: in vivo, mouse. Particulars: 50° C., NaBr 70 mg/kg, VU0155041 1 mg/kg, alone or combined, chronic. The method, then: as §1
Tail-immersion test. Nociceptive thresholds were assessed by immersing the tail of the mice (5 cm from the tip) successively into water baths at 48° C., 50° C. and 52° C. The latency to withdraw the tail was measured at each temperature, with a cutoff of 10 s.

Data set [5] relates to Fmr1^−/− mice. Kind of data set: Marble-burying. It is filed as in vivo, mouse. Particulars: Fmr1+/+ and Fmr1−/− mice; chronic NaBr 250 mg/kg once daily. As to the method: as §1
(§3) Marble-burying. Marble burying was used as a measure of perseverative behavior (68). Mice were introduced individually in transparent cages (21×11×17 cm) containing 20 glass marbles (diameter: 1.5 cm) evenly spaced on 4-cm deep fresh sawdust. To prevent escapes, each cage was covered with a filtering lid. Light intensity in the room was set at 40 lux. The animals were removed from the cages after 15 min, and the number of marbles buried more than half in sawdust was quoted.
(§4) To this purpose, we evaluated the effects of chronic NaBr administration at the dose of 250 mg/kg on autism-sensitive behaviors in these lines (FIG. 3A).

Data set [6] relates to Shank3^Δex13-16−/− mice. In words: Marble-burying. It is filed as in vivo, mouse. Particulars: Shank3Δex13-16−/− and WT mice, chronic NaBr 250 mg/kg once daily. The method, then:
as §1, §3, §4

Data set [7] deals with Fmr1^−/− mice. In words: Novelty-suppressed feeding. Format: in vivo, mouse. The following applies: chronic NaBr 250 mg/kg once daily. The method, then:
as §1, §2, §4

The test system of data set [8] is Shank3^Δex13-16−/− mice. Kind of data set: Novelty-suppressed feeding. It is filed as in vivo, mouse. Particulars: Shank3Δex13-16−/− mice; chronic NaBr 250 mg/kg once daily. As to the method: as §1, §2, §4
For data set [9] the following is noted: stated in conclusion, no data; cited from earlier work.
Setting [10] is: chronic NaBr (since lowest dose, 10 mg/kg) or bumetanide 0.5 and 2 mg/kg.

As for `[Br-].[Na+]` [NaBr, sodium bromide], the “frequency of nose contacts with the mouse versus the toy” value with Oprm1^−/− mice [1] (NaBr 70 mg/kg or VU0155041 1 mg/kg, once daily, chronic) was “sufficient to restore more frequent nose contacts with the mouse versus the toy”. In addition, the “duration of nose contacts with the mouse versus the toy” value is “fully restored longer nose contacts with the mouse” in the data set with Oprm1^−/− mice [1] (NaBr 70 mg/kg, VU0155041 1 mg/kg, alone or combined, once daily, chronic) and “longer” in the data set on Oprm1^−/− mice [1] (setting [10]). Also, in the data set on Oprm1^−/− mice [1] (chronic NaBr 10-500 mg/kg once daily), the social preference entry is “completely restored social preference in mutant mice”. The social preference ratio result with Oprm1^−/− mice [1] (chronic NaBr 10-500 mg/kg or bumetanide 0.5 and 2 mg/kg) is “normalization of their preference ratio from 10 mg/kg NaBr and over”. Further, in the data set with Oprm1^−/− mice [1] (setting [10]), the “number of nose contacts with the mouse versus the toy” value was “more frequent”. Further, the “perseverative same arm returns” value was “suppressed perseverative same arm returns from the dose of 70 mg/kg” with Oprm1^−/− mice [2] and “decreased the number of perseverative same arm returns in Oprm1 null mice to wild-type levels since the dose of 30 mg/kg” with Oprm1^−/− mice [2] (listed as bromide). The latency to feed entry in the data set with Oprm1^−/− mice [3] (Oprm1−/− mice, chronic NaBr 70 mg/kg) is listed as “sufficient to normalize latency to feed”. Moreover, the latency to eat entry in the data set on Oprm1^−/− mice [3] (Oprm1−/− mice, chronic NaBr (since the lowest dose tested) or bumetanide) is “normalized eating latency”; with Fmr1^−/− mice [7], “reduced this latency”; with Shank3^Δex13-16−/− mice [8], “normalized this latency to WT levels”. The food intake entry in the data set with Oprm1^−/− mice [3] (both mouse lines, chronic NaBr (since the lowest dose tested) or bumetanide) is on record as “increased food intake in both mouse lines”; in the data set with Fmr1^−/− mice [7], “no modification in their food intake”; in the data set on Shank3^Δex13-16−/− mice [8] it was “had no effect on food intake”. Moreover, the “flicking latency (nociceptive threshold)” value in the data set on Oprm1^−/− mice [4] was “ineffective”. For the same molecule, the “number of buried marbles” value with Fmr1^−/− mice [5] is “reduced the number of buried marbles in both Fmr1^+/+ and Fmr1^−/− mice”. The marble burying entry in the data set with Shank3^Δex13-16−/− mice [6] was “had no effect on reduced burying in Shank3^Δex13-16−/− mice”; in the data set on Shank3^Δex13-16−/− mice [6] (listed as bromide), “decreased burying in both mutant and WT mice”. In addition, the brain penetrance entry in data set [9] was “excellent”. Further, the oral bioavailability result in data set [9] is given as “excellent oral bioavailability”.

The values above are taken from patent publication US20240366539A1, “METHODS FOR TREATING AUTISM SPECTRUM DISORDERS” (INSTITUT NATIONAL DE LA SANTÉ ET DE LA RECHERCHE MÉDICALE, priority 2021, published 2024).
